Assay [1] deals with Y641N EZH2 (Homo sapiens, UniProt Q15910, Y641N). In words: Assay for Y641N EZH2 (as the EZH2 assay, H3K27Me2 oligonucleosomes as substrate). The assay is classed as biochemical. Conditions: Y641N EZH2 mutant, reconstituted H3K27Me2 oligonucleosomes as substrate. The method, boiled down: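 rPRC2 (2 nM EZH2) with 0.2 μM reconstituted H3K27Me2 biotinylated oligonucleosomes, 3.6 μM H3K27me3 peptide, 0.2 μM ^3H SAM in Tris pH 8.5; compounds (80 to 0.16 μM, 2-fold) pre-incubated 20 min, reaction 60 min, SAH/EDTA quench. Tritiated product captured on streptavidin plates, scintillation counted; IC50 from 4-parameter fit.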

Assay [2] concerns H3K27me3 mark in Hela cells expressing wild type EZH2. In words: H3K27me3 MSD Hela Assay. Particulars: read-out: H3K27me3_MSD_HeLa (EC50). The assay is classed as cell-based. The procedure:
H3K27me3 MSD Hela Assay. Trypsinized HeLa cells were counted and diluted in 10% DMEM (Life Technologies, Cat. #10569) to 5000 cells/75 μL. Seventy-five μL of cells were place in each well of a 96-well flat-bottomed plate and incubated at 37° C. for 4 hours. Twenty-five μL of test compound (at various concentrations) was added to the cells and incubation continued at 37° C. for 96 hours. Media was then removed and the cells rinsed once with ice cold PBS. Forty μL of ice-cold MSD Buffer AT (10 mM HEPES, pH 7.9, 5 mM MgCl2, 0.25M sucrose, Benzonase (1:10000), 1% Triton X-100 supplemented with fresh 1× Protease Inhibitor cocktail and 1 mM 4-(2-Aminoethyl)benzenesulfonyl fluoride hydrochloride (AEBSF)) was added to each well and the plates placed on ice for 30 minutes. Ten μL of 5M NaCl was then added to each well and incubation on ice continued for another 15 minutes. The material in each well was suspended pipetting up and down and then transferred to a new 96 well plate. The emptied wells were rinsed with 150 uL ice-cold 20 mM Tris pH 7.5, 1 mM EDTA, 1 mM EGTA, supplemented with fresh 1× Protease Inhibitor cocktail and 1 mM AEBSF (“NO salt NO detergent buffer) and transferred to the respective wells in the new plate. Three hundred μL of NO Salt NO detergent buffer was then added to each well of lysates and the plates frozen at −80° C.
On the same day, an appropriate number of MSD standard bind 96-well plates were coated with 30 μL/well of total H3 capture antibody (Millipore, Cat # MAB3422) at 1 μg/mL concentration in PBS. The antibody solution was evenly distributed first by tapping gently on the sides of the plates and then by shaking the plates for a few minutes at 1000 rpm. Antibody coated plates were stored at 4° C. overnight.
The next day the lysates are thawed to RT. The antibody coated MSD plates are washed 3× with TBS-T (Tris-buffered saline (Fisher Scientific, Cat #BP2471-1)+0.2% Tween-20). One-hundred fifty μL of 5% Blocker A in TBS-T is added to each well. The wells are covered and shaken on a shaker at RT for one hour. The Blocker A step is repeated a second time. After removing the blocker, 25 μL of cell lysate is transferred into each antibody coated well. The plates are shaken for 2 hours at RT, the lysate removed and the plates again washed with Blocker A in TBS-T. Twenty-five μL of appropriate freshly prepared antibody mix (including both primary and secondary antibodies) is added to each well and the plates shaken for 1 hour at RT.
Both H3 antibodies were obtained from Cell Signalling (Cat #s 4499 and 9733). The goat anti-rabbit antibody was obtained from Meso-Scale Discovery (Cat #R32AB-1).
The antibody mix was then removed and the wells washed with Blocker A. One hundred-fifty μL of freshly prepared 1×MSD Read Buffer (Meso-Scale Discovery; Cat #R927C-2) was then added to each well and the plates read on a MSD Sector 2400 Plate Reader.
Data was analyzed using Assay Assistant (Constellation Pharmaceuticals In-house product) and Activity Base (IDBS Ltd, Surrey, UK) template. Data files were imported to Assay Assistant and assay conditions were specified. A unique Analysis ID was created and the data files exported to Activity Base. An analysis template was created on Activity Base to measure dose-dependent inhibition of H3K27me3 mark and cell viability respectively. Readout of DMSO wells were used to normalize the data. Resulting curves were fitted using Activity base software Model 205 (IDBS Ltd, Surrey, UK). The data was checked for quality, validated and integrated in excel format using SARview (IDBS Ltd, Surrey, UK).

Assay [3] has as its target EZH2 (Homo sapiens, UniProt Q15910). In words: EZH2 Assay (3H SAM methyl transfer, rPRC2, FlashPlate). The format is biochemical. Conditions: rPRC2, biotinylated oligonucleosomes, 0.2 μM 3H SAM, 2 nM EZH2. The essentials: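 rPRC2 (2 nM EZH2) was preincubated 20 min with compound (80 to 0.16 μM, 10 points), then reacted 60 min with 0.2 μM ³H-SAM, 0.2 μM biotinylated oligonucleosomes and 3.6 μM H3K27me3 peptide at pH 8.5. Methylated product was captured on SAV FlashPlates and counted, and IC50 came from a 4-parameter fit.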

Experimental findings from US9745305B2, “Modulators of methyl modifying enzymes, compositions and uses thereof” (Constellation Pharmaceuticals, Inc., priority 2013, dated 2017) are described below.

Structures are written as SMILES. Where two headings read alike, the source gives them in different places.

EZH2, sequence (Q15910 whole entry): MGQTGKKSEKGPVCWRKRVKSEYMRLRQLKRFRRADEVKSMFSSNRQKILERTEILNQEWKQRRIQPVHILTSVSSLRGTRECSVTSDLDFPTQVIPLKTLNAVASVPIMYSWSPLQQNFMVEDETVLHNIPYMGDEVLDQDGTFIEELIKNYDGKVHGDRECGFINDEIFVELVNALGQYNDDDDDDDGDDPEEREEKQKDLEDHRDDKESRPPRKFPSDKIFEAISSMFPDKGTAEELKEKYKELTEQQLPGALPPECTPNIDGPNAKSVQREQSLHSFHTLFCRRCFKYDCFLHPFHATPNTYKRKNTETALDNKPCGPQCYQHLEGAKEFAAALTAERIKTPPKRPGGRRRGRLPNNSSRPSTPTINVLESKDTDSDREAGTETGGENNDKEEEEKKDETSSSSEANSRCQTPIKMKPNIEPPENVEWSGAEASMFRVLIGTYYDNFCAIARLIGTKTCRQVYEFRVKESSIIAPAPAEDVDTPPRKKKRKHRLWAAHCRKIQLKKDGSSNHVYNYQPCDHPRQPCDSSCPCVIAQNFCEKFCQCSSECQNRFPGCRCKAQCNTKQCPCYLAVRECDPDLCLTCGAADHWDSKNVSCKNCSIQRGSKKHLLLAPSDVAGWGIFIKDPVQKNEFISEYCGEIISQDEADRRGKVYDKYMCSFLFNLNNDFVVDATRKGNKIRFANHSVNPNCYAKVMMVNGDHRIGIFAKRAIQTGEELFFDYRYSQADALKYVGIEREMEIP
EZH2, sequence (O75530 whole entry partner): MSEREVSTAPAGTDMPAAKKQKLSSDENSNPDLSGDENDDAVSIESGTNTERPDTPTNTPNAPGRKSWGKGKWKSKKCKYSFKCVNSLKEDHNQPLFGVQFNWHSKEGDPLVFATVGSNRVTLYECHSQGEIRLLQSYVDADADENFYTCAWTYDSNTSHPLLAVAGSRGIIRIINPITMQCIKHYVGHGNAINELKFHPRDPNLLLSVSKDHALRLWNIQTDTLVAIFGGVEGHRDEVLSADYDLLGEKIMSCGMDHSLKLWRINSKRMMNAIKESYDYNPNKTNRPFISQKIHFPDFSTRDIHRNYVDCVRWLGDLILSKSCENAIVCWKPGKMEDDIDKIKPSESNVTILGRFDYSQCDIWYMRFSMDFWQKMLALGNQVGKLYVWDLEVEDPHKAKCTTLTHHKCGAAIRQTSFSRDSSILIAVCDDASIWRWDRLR
EZH2, sequence (Q15022 whole entry partner): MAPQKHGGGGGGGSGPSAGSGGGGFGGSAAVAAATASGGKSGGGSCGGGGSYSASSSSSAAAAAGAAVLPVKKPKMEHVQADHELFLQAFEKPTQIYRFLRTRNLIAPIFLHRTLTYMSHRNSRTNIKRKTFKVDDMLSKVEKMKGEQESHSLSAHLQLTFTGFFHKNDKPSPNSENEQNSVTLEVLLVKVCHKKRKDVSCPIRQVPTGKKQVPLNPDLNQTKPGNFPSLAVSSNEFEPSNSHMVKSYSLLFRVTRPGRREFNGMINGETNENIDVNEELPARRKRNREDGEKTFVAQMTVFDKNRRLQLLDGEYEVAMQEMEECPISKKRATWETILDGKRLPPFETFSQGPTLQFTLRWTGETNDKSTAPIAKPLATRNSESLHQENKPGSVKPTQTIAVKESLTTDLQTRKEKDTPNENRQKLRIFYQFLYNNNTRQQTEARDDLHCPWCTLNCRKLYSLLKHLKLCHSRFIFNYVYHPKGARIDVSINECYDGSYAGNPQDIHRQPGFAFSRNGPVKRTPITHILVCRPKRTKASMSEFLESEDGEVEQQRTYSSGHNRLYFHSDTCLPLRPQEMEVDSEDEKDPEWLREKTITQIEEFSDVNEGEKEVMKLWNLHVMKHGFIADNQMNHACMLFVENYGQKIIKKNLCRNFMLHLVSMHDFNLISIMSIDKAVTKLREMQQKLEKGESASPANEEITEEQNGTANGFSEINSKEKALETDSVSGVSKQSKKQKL
Y641N EZH2, sequence (Q15910 whole entry Y641N): as the sequence (Q15910 whole entry) above, with Y641N counted along it
Y641N EZH2, sequence (O75530 whole entry partner): as the sequence (O75530 whole entry partner) above
Y641N EZH2, sequence (Q15022 whole entry partner): as the sequence (Q15022 whole entry partner) above

What is called IC50 is the concentration at which inhibition is half-maximal. A word on the EC50: it is the concentration at which the effect is half-maximal. As for `COc1cc(C)[nH]c(=O)c1CNC(=O)c1c(C)c(C(C)c2ccn(C)c(=O)c2)n2ncccc12` (stereo not drawn) [Compound 110, N-((4-methoxy-6-methyl-2-oxo-1,2-dihydropyridin-3-yl)methyl)-6-methyl-7-(1-(1-methyl-2-oxo-1,2-dihydropyridin-4-yl)ethyl)pyrrolo[1,2-b]pyridazine-5-carboxamide], the half-inhibitory concentration (IC50) in assay [1] is 100 to 1000 nM; in assay [3] it was less than 100 nM. Also, the EC50 in assay [2] (Homo sapiens, HeLa, 96 h) is 2000 to 10000 nM.
Take `COc1cc(C)[nH]c(=O)c1CNC(=O)c1c(C)c(C(C)N(C)S(C)(=O)=O)n2ncccc12` (racemic) [Compound 103, (±)-N-((4-methoxy-6-methyl-2-oxo-1,2-dihydropyridin-3-yl)methyl)-6-methyl-7-(1-(N-methylmethylsulfonamido)ethyl)pyrrolo[1,2-b]pyridazine-5-carboxamide]: the half-inhibitory concentration (IC50) is 100 to 1000 nM in assay [1] and less than 100 nM in assay [3]. Moreover, in assay [2] (Homo sapiens, HeLa, 96 h), the EC50 lay within 400 to 2000 nM.
In the case of `COc1cc(C)[nH]c(=O)c1CNC(=O)c1c(C)c(C(C)c2cccnc2)n2ncccc12` (racemic) [Compound 113, (±)-N-((4-methoxy-6-methyl-2-oxo-1,2-dihydropyridin-3-yl)methyl)-6-methyl-7-(1-(pyridin-3-yl)ethyl)pyrrolo[1,2-b]pyridazine-5-carboxamide], the IC50 in assay [1] and in assay [3] was less than 100 nM throughout. Besides, the 50% effective concentration (EC50) in assay [2] (Homo sapiens, HeLa, 96 h) was less than 400 nM.
With `CCN(C(C)c1c(C)c(C(=O)NCc2c(OC)cc(C)[nH]c2=O)c2cccnn12)S(C)(=O)=O` (single isomer, unassigned) [Compound 108, (R or S)-7-(1-(N-ethylmethylsulfonamido)ethyl)-N-((4-methoxy-6-methyl-2-oxo-1,2-dihydropyridin-3-yl)methyl)-6-methylpyrrolo[1,2-b]pyridazine-5-carboxamide], the figures for the half-inhibitory concentration (IC50) in assay [1] and in assay [3] were 100 to 1000 nM and less than 100 nM, respectively. Also, the EC50 in assay [2] (96 hours) lay within 400 to 2000 nM.
